Test system: antigen induced bronchospasm
Assay: Inhibition of antigen induced bronchospasm in passively sensitized guinea pigs
Format: in vivo, guinea pig
Details: 60 min before antigen, 3 min after antigen application
Procedure: The following tests were conducted to determine the effectiveness of the new compounds in the inhibition of antigen induced bronchospasm in passively sensitized guinea pigs.
The antigen is twice recrystallised egg albumin. Equal volumes of saline solution of antigen (5 mg/ml) and Freund's complete adjuvant were emulsified and 0.15 ml injected into each hind foot of adult male guinea pigs (DAVIES and JOHNSON: Int. Arch. Allergy 41, 648-654 (1971)).
The animals were bled and the pooled serum stored at -20° C.
Injections of 0.5 ml antiserum of 1:50 dilution were given i.v. 24-48 h before challenge.
Guinea pigs were anaesthetized with pentobarbitone sodium (40 mg/kg i.p.). Cannulae were tied into the trachea and the jugular vein and the lung inflated with a pump at a rate of 72 strokes/min and a constant stroke volume of 6-8 ml.
Bronchospasm, provoked by injecting ovalbumin i.v. was measured as described in COLLIER, H. O. J., J. A. HOLGATE, M. SCHACHTER: THE BRONCHOCONSTRICTOR ACTION OF BRADYKININ IN THE GUINEA-PIG. Brit. J. Pharmacol. 15, 290 (1960) and KONZETT, H. und R. ROSSLER: Versuchsanordnung zu Untersuchungen an der Bronchialmuskulatur. Naunyn-Schmiedebergs Arch. exp. Path. Pharmk. 195, 71-74 (1940)
Drugs were applied p.o. 60 min before antigen. For calculation the following formular was used: [formula]
b=Bronchospasm after antigen injection, measured in mm from tracing
m=maximum height of tracing in mm with arm of the trachea-cannula clamped
a=pre injection height of the tracing in mm
% inhibition of bronchospasm was calculated by comparing control groups with drug pretreated groups 3 min after antigen application.

SMILES	% Inhibition of BrSp (bronchospasm) (0.38 mg/kg p.o.)	% Inhibition of BrSp (bronchospasm) (0.75 mg/kg p.o.)	% Inhibition of BrSp (bronchospasm) (1.5 mg/kg p.o.)	% Inhibition of BrSp (bronchospasm) (3.0 mg/kg p.o.)
Cc1cc(=O)c2ccc(OCCCN3CCC(NC(=O)c4ccc(F)cc4)CC3)cc2o1 [7-{3-[4-(4-fluorobenzamido)-piperidino]-propoxy}-2-methyl-4H-1-benzopyran-4-one]	46%	–	–	–
Cc1c(C)c2ccc(OCCCN3CCC(NC(=O)c4cccs4)CC3)cc2oc1=O [3,4-Dimethyl-7-{3-[4-(thiophene-2-carboxamido)-piperidino]-propoxy}-cumarin, reference compound]	–	0%	40%	67%
Cc1cc(=O)c2ccc(OCCCN3CCC(NC(=O)c4ccccc4)CC3)cc2o1 [7-[3-(4-Benzamidopiperidino)-propoxy]-2-methyl-4H-1-benzopyran-4-one]	55%	64%	–	–
Cc1cc(=O)c2ccc(OCCCN3CCC(NC(=O)c4ccccc4C)CC3)cc2o1 [7-{3-[4-(2-methylbenzamido)-piperidino]-propoxy}-2-methyl-4H-1-benzopyran-4-one]	–	60%	–	–
